Where two headings read alike, the source gives them in different places.
Experiments:
S-180 sarcoma = assay: Transplanted S-180 sarcoma in mice, tumor inhibition
Method: Tumors, including B-16 melanoma and S-180 sarcoma, were provided by Shanghai Institute of Materia Medica of the Chinese Academy of Sciences.
The tumor tissue was made into cell suspension. The mice were inoculated subcutaneously in the right axilla with the cell suspension, about 4.5-5×10^6 cells/mouse. After 24 hours, the mice were randomly divided into different groups and housed in separate cages (n=6). […] The administration began on the second day and lasted for seven days, with different doses. The blank control group was given normal saline (NS). The animals were sacrificed and weighed (g body weight) 24 hours after drug withdrawal. The tumors were excised and weighed. The average tumor weight was calculated for each group. According to the following formula, the tumor inhibition rate was calculated and T test was conducted.
According to the formula below, the tumor inhibition rate was calculated and T test was conducted.
(§1) A=average tumor weight (g) of blank control group,
B=average tumor weight (g) of therapeutic group

B16 melanoma = assay: Transplanted B16 melanoma in mice, tumor inhibition; format: in vivo, C57 mice; conditions: alone or combined, once a day for seven days
Method: The tumor tissue was made into cell suspension. […] The blank control group was given normal saline (NS). […] The tumors were excised and weighed. The average tumor weight was calculated for each group.
as §1
B =average tumor weight (g) of therapeutic group

pancreatic carcinoma = conditions: cited from earlier work
liver cancer = conditions: treatment group (placebo control group 7.9 months); cited from earlier work
[1] = Table 18: 5-Fluorouracil 15 mg/kg i.p, Algal proteoglycan 20 mg/kg p.o, alone or combined, once a day for seven days
[2] = Table 14: Adriamycin 1 mg/kg i.p, Algal proteoglycan 30 mg/kg p.o
[3] = Table 16: Carboplatin 4 mg/kg i.p, Algal proteoglycan 20 mg/kg p.o, alone or combined, once a day for seven days
[4] = Table 12: Carboplatin 4 mg/kg i.p, Algal proteoglycan 30 mg/kg p.o
[5] = Table 13: Carboplatin 4 mg/kg i.p, Algal proteoglycan 60 mg/kg p.o
[6] = Table 15: Cyclophosphamide 7.5 mg/kg i.p, Algal proteoglycan 60 mg/kg p.o, alone or combined, once a day for seven days
[7] = Table 17: Etoposide 3 mg/kg i.p, Algal proteoglycan 20 mg/kg p.o, alone or combined, once a day for seven days

O=c1[nH]cc(F)c(=O)[nH]1 [5-Fluorouracil, 5-fluorouracil]
inhibitory effect on the transplanted tumor of S-180 sarcoma, in words (S-180 sarcoma; 5-fluorouracil 15 mg/kg used alone): moderate inhibitory effect
Tumor Inhibition Rate (%) (S-180 sarcoma; [1]): 33.8%
Tumor Weight (g) x ± SD (S-180 sarcoma; [1]): 1.04 ± 0.52 g

COc1cccc2c1C(=O)c1c(O)c3c(c(O)c1C2=O)C[C@@](O)(C(=O)CO)C[C@@H]3O[C@H]1C[C@H](N)[C@H](O)[C@H](C)O1 [Adriamycin]
Tumor Inhibition Rate (%) (B16 melanoma; [2]): 41.5%
Tumor Weight (g) x ± SD (B16 melanoma; [2]): 1.97 ± 0.84 g

N.N.O=C([O-])C1(C(=O)[O-])CCC1.[Pt+2] [Carboplatin]
inhibitory effect on the growth of the transplanted tumor of S-180 sarcoma, in words (S-180 sarcoma; Carboplatin 4 mg/kg used alone (P>0.05)): no inhibitory effect
Body Weight (g) in the End (S-180 sarcoma; [3]): 26.4 g
Tumor Inhibition Rate (%) (S-180 sarcoma; [3]): 7.7%
Tumor Weight (g) x ± SD (S-180 sarcoma; [3]): 1.68 ± 0.53 g
Body Weight (g) in the Beginning (B16 melanoma; [4]): 18.0 g
Body Weight (g) in the End (B16 melanoma; [4]): 16.7 g
Tumor Inhibition Rate (%) (B16 melanoma; [4]): 28.2%
Tumor Weight (g) x ± SD (B16 melanoma; [4]): 1.07 ± 0.88 g
Body Weight (g) in the Beginning (B16 melanoma; [5]): 20.3 g
Tumor Inhibition Rate (%) (B16 melanoma; [5]): 14.0%
Tumor Weight (g) x ± SD (B16 melanoma; [5]): 1.23 ± 0.37 g

O=P1(N(CCCl)CCCl)NCCCO1 (stereo not drawn) [Cyclophosphamide]
Body Weight (g) in the Beginning (S-180 sarcoma; [6]): 22.8 g
Body Weight (g) in the End (S-180 sarcoma; [6]): 24.9 g
Tumor Inhibition Rate (%) (S-180 sarcoma; [6]): 42.2%
Tumor Weight (g) x ± SD (S-180 sarcoma; [6]): 1.11 ± 0.24 g

COc1cc([C@@H]2c3cc4c(cc3[C@@H](O[C@@H]3O[C@@H]5CO[C@@H](C)O[C@H]5[C@H](O)[C@H]3O)[C@H]3COC(=O)[C@H]23)OCO4)cc(OC)c1O [Etoposide]
Tumor Inhibition Rate (%) (S-180 sarcoma; [7]): 26.9%
Tumor Weight (g) x ± SD (S-180 sarcoma; [7]): 1.33 ± 0.28 g

Nc1ccn([C@@H]2O[C@H](CO)[C@@H](O)C2(F)F)c(=O)n1 [Gemcitabine FDR.]
Overall survival (pancreatic carcinoma; Poplon et al, 832 cases): 6.2 months

Nc1ccn([C@@H]2O[C@H](CO)[C@@H](O)C2(F)F)c(=O)n1 [Gemcitabine]
Overall survival (pancreatic carcinoma; Abou-Alfa et al, 349 cases): 6.2 months
Overall survival (pancreatic carcinoma; Berlin et al, 322 cases): 5.4 months
Overall survival (pancreatic carcinoma; Colucci et al, 400 cases): 7.2 months
Overall survival (pancreatic carcinoma; Cunningham et al, 533 cases): 7.1 months
Overall survival (pancreatic carcinoma; Heinemann et al, 195 cases): 6.0 months
Overall survival (pancreatic carcinoma; Hermann et al, 319 cases): 7.2 months
Overall survival (pancreatic carcinoma; Louvet et al, 313 cases): 7.1 months
Overall survival (pancreatic carcinoma; Oettle et al, 565 cases): 6.3 months
Overall survival (pancreatic carcinoma; Poplon et al, 832 cases): 4.9 months
Overall survival (pancreatic carcinoma; Rocha Lima et al, 342 cases): 6.3 months
Overall survival (pancreatic carcinoma; Starhopoulos et al, 145 cases): 6.4 months

CNC(=O)c1cc(Oc2ccc(NC(=O)Nc3ccc(Cl)c(C(F)(F)F)c3)cc2)ccn1 [Sorafenib]
median survival time (liver cancer): 10.7 months

Gemcitabine + capecitabine
Overall survival (pancreatic carcinoma; Cunningham et al, 533 cases): 6.2 months
Overall survival (pancreatic carcinoma; Hermann et al, 319 cases): 8.4 months

Gemcitabine + cisplatin
Overall survival (pancreatic carcinoma; Colucci et al, 400 cases): 8.2 months
Overall survival (pancreatic carcinoma; Heinemann et al, 195 cases): 7.5 months
